Results: patent publication US11076595B2, “1-(n,n-disubstituted carbamoyl) 4-(substituted sulfonyl)triazolin-5-one derivative, 4-(n,n-disubstituted carbamoyl) 1-(substituted sulfonyl)triazolin-5-one derivative, and herbicide containing said derivative as active ingredient” (HOKKO CHEMICAL INDUSTRY CO., LTD., priority 2017, dated 2021)

Columns and labels:
Format in all cases: in vivo
Echinochloa crus-galli [1] = experiment: Test Example 11: herbicidal effect test by soil treatment in paddy field; conditions: 120 g/10a active ingredient, 14 days after treatment
Summary of the method: (§1)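 Puddled paddy soil with N:P:K 17:17:17 fertilizer in Wagner pots; 30 seeds per species sown at 0–1 cm, flooded to about 3 cm, kept in a glass greenhouse. Water-diluted emulsifiable concentrate dripped in immediately after sowing at 120 g a.i. per 10 are. Suppression from dry weight versus untreated at 14 days.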

Lindernia pyxidaria [2] = experiment: as above; conditions: 120 g/10a active ingredient, 14 days after treatment
Summary of the method: as §1

Scirpus juncoides [3] = experiment: as above; conditions: 120 g/10a active ingredient, 14 days after treatment
Summary of the method: as §1

Monochoria vaginalis [4] = experiment: as above; conditions: 120 g/10a active ingredient, 14 days after treatment
Summary of the method: as §1

Echinochloa crus-galli [5] = experiment: Test Example 12: herbicidal effect test by treatment during growing period in paddy field; conditions: 120 g/10a; treatment seven days after sowing in flooded paddy pot; assessed 14 days after treatment
Summary of the method: (§2)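 Growing-period treatment in flooded paddy pots: the diluted emulsifiable concentrate was dripped in at 120 g a.i. per 10 are seven days after seeding. Inhibition is expressed as percent reduction in dry weight versus untreated pots, measured 14 days later in duplicate.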

Lindernia pyxidaria [6] = experiment: as above; conditions: 120 g/10a; treatment seven days after sowing in flooded paddy pot; assessed 14 days after treatment
Summary of the method: as §2

Scirpus juncoides [7] = experiment: as above; conditions: 120 g/10a; treatment seven days after sowing in flooded paddy pot; assessed 14 days after treatment
Summary of the method: as §2

Monochoria vaginalis [8] = experiment: as above; conditions: 120 g/10a; treatment seven days after sowing in flooded paddy pot; assessed 14 days after treatment
Summary of the method: as §2

| SMILES | Weed suppression rate (%) Echinochloa crus-galli (Echinochloa crus-galli [1]) | Weed suppression rate (%) Lindemia pyxidaria (Lindernia pyxidaria [2]) | Weed suppression rate (%) Scirpus juncoides (Scirpus juncoides [3]) | Weed suppression rate (%) Monochoria vaginalis (Monochoria vaginalis [4]) | Weed suppression rate (%) Echinochloa crus-galli (Echinochloa crus-galli [5]) | Weed suppression rate (%) Lindemia pyxidaria (Lindernia pyxidaria [6]) | Weed suppression rate (%) Scirpus juncoides (Scirpus juncoides [7]) | Weed suppression rate (%) Monochoria vaginalis (Monochoria vaginalis [8]) |
| --- | --- | --- | --- | --- | --- | --- | --- | --- |
| CC(C)N(C(=O)n1cnn(S(=O)(=O)c2ccc(C(C)(C)C)cc2)c1=O)c1ccccc1F [Compound 11-672] | 90% | 80% | 90% | 80% | 90% | 80% | 90% | 80% |
| CC(C)N(C(=O)n1cnn(S(=O)(=O)c2ccc(C(C)(C)C)cc2)c1=O)c1cccc(F)c1F [Compound 11-681] | 100% | 90% | 100% | 80% | 100% | 90% | 100% | 100% |
| CC(C)N(C(=O)n1cnn(S(=O)(=O)c2ccc(C(C)(C)C)cc2)c1=O)c1ccc(F)c(F)c1F [Compound 11-685] | 90% | 100% | 60% | 100% | 80% | 60% | 60% | 70% |
| CC(C)N(C(=O)n1cnn(S(=O)(=O)c2ccc(C(C)(C)C)cc2)c1=O)c1c(F)c(F)cc(F)c1F [Compound 11-687] | 80% | 100% | 90% | 100% | 100% | 70% | 70% | 80% |
| CC(C)N(C(=O)n1cnn(S(=O)(=O)c2ccc(C(C)(C)C)cc2)c1=O)c1ccc(F)cc1Cl [Compound 11-689] | 90% | 90% | 70% | 70% | 60% | 70% | 90% | 80% |
| CC(C)N(C(=O)n1cnn(S(=O)(=O)c2ccc(C(C)(C)C)cc2)c1=O)c1ccc(Cl)cc1Br [Compound 11-694] | 90% | 80% | 70% | 70% | 70% | 60% | 80% | 70% |
| Cc1ccc(N(C(=O)n2cnn(S(=O)(=O)c3ccc(C(C)(C)C)cc3)c2=O)C(C)C)c(F)c1 [Compound 11-696] | 90% | 80% | 90% | 80% | 90% | 80% | 90% | 80% |
| Cc1ccc(N(C(=O)n2cnn(S(=O)(=O)c3cccc(C(F)(F)F)c3)c2=O)C(C)C)c(F)c1 [Compound 11-737] | 90% | 80% | 90% | 80% | 90% | 80% | 90% | 80% |
| CC(C)N(C(=O)n1cnn(S(=O)(=O)c2c(F)cccc2F)c1=O)c1cccc(F)c1F [Compound 11-772] | 100% | 90% | 80% | 80% | 100% | 70% | 90% | 90% |
| CC(C)N(C(=O)n1cnn(S(=O)(=O)c2c(F)cccc2F)c1=O)c1c(F)cc(F)cc1F [Compound 11-777] | 100% | 90% | 100% | 80% | 90% | 70% | 70% | 80% |
| CC(C)N(C(=O)n1cnn(S(=O)(=O)c2c(F)c(F)c(F)c(F)c2F)c1=O)c1ccccc1F [Compound 11-801] | 90% | 90% | 90% | 90% | 90% | 60% | 60% | 80% |
| Cc1ccc(N(C(=O)n2cnn(S(=O)(=O)c3c(F)c(F)c(F)c(F)c3F)c2=O)C(C)C)c(F)c1 [Compound 11-825] | 90% | 80% | 90% | 80% | 90% | 80% | 90% | 80% |
| Cc1cc(C)c(S(=O)(=O)n2ncn(C(=O)N(c3ccccc3F)C(C)C)c2=O)c(C)c1 [Compound 11-853] | 100% | 90% | 90% | 80% | 90% | 80% | 90% | 80% |
| Cc1cc(C)c(S(=O)(=O)n2ncn(C(=O)N(c3cccc(F)c3)C(C)C)c2=O)c(C)c1 [Compound 11-854] | 100% | 90% | 90% | 80% | 80% | 90% | 80% | 90% |
| Cc1cc(C)c(S(=O)(=O)n2ncn(C(=O)N(c3ccc(F)cc3)C(C)C)c2=O)c(C)c1 [Compound 11-855] | 100% | 90% | 90% | 90% | 80% | 60% | 80% | 80% |
| Cc1cc(C)c(S(=O)(=O)n2ncn(C(=O)N(c3cccc(F)c3F)C(C)C)c2=O)c(C)c1 [Compound 11-862] | 100% | 100% | 100% | 100% | 100% | 80% | 100% | 100% |
| Cc1cc(C)c(S(=O)(=O)n2ncn(C(=O)N(c3ccc(F)c(F)c3F)C(C)C)c2=O)c(C)c1 [Compound 11-866] | 100% | 100% | 90% | 90% | 80% | 70% | 60% | 90% |
| Cc1cc(C)c(S(=O)(=O)n2ncn(C(=O)N(c3c(F)cc(F)cc3F)C(C)C)c2=O)c(C)c1 [Compound 11-867] | 100% | 100% | 80% | 80% | 100% | 70% | 80% | 80% |
| Cc1cc(C)c(S(=O)(=O)n2ncn(C(=O)N(c3c(F)c(F)cc(F)c3F)C(C)C)c2=O)c(C)c1 [Compound 11-868] | 100% | 100% | 100% | 70% | 90% | 90% | 60% | 80% |
